The test has as its system Plasmodium berghei. Briefly: Antimalarial activity against Plasmodium berghei. It counts as functional.

This is an account of results in ChEMBL document CHEMBL3227967, “Quantitative structure-activity relationships in 1-aryl-2-(alkylamino)ethanol antimalarials” (J Med Chem, 1979).

Molecules are shown by their SMILES.

Regarding `CCCC(CCC)NCC(O)c1cc(-c2ccc(Cl)cc2)nc(-c2ccc(Cl)cc2)c1` (configuration not stated), the “log(1/C)” value was determined as 4.13.

For the compound `CCCN(CCC)CC(O)c1cccc2c1cc(Cl)c1ccccc12` (configuration not stated), the “log(1/C)” value is given as 2.02.

Turning to `COc1ccc(OC)c2c(C(O)CNC34CC5CC(CC(C5)C3)C4)cc(-c3ccc(Cl)cc3)nc12` (configuration not stated), the “log(1/C)” value came to 2.48.

Turning to `OC(Cc1ccc2ccccc2n1)c1cc2ccc(C(F)(F)F)cc2c2cc(C(F)(F)F)ccc12` (configuration not stated), the “log(1/C)” value is listed as 4.11.

For `CCCNCC(O)c1cc(-c2ccc(C(F)(F)F)cc2)nc(-c2ccc(C(F)(F)F)cc2)c1` (configuration not stated), the “log(1/C)” value is recorded as 4.03.

Regarding `OC(CC1CCCCN1)c1cc(Nc2ccc(Cl)cc2)nc2ccccc12` (configuration not stated), the “log(1/C)” value is on record as 2.52.

As for `CCCCN(CCCC)CC(O)c1cc(-c2ccc(Br)cc2)nc(-c2ccc(C(F)(F)F)cc2)c1` (configuration not stated), the “log(1/C)” value is given as 3.62.

`C=C[C@H]1CN2CC[C@H]1C[C@H]2[C@H](O)c1cc(-c2ccccc2)nc2ccc(OC)cc12`: the “log(1/C)” value was 2.72.

Consider `CCCCN(CCCC)CC(O)c1cc(-c2ccc(Cl)cc2)nc2cc(Cl)c(C)cc12` (configuration not stated), for which the “log(1/C)” value turned out to be 4.22.

For `CCCCN(CCCC)CC(O)c1cc(/C=C/c2ccc(C(F)(F)F)cc2)nc(/C=C/c2ccc(C(F)(F)F)cc2)c1` (configuration not stated), the “log(1/C)” value amounted to 3.82.

On to `CCCCN(CCCC)CC(O)c1cc(-c2ccc(Cl)cc2)nc(-c2ccc(Cl)c(Cl)c2)c1` (configuration not stated), for which the “log(1/C)” value was 3.

With `CCCCN(CCCC)CC(O)c1cc2ccc(C(C)(C)C)cc2c2cc(C(C)(C)C)ccc12` (configuration not stated), the “log(1/C)” value is reported as 3.19.

As for `CCCCCCCN(CCCCCCC)CC(O)c1cc2cc(Cl)ccc2c2ccccc12` (configuration not stated), the “log(1/C)” value was 3.09.

With `Cc1ccc(-c2cc(C(O)CC3CCCCN3)c3ccccc3n2)cc1` (configuration not stated), the “log(1/C)” value stood at 2.38.

Regarding `CC(C)(C)NCCC(O)c1cc(C(F)(F)F)nc2c(C(F)(F)F)cccc12` (configuration not stated), the “log(1/C)” value came to 3.47.

Take `CN(C)CC(O)c1cc2cc(C(F)(F)F)cc(C(F)(F)F)c2c2ccccc12` (configuration not stated): the “log(1/C)” value came out at 3.94.

Take `OC(CC1CCCCN1)c1cc2ccc(Cl)cc2c2cc(Cl)c(Cl)cc12` (configuration not stated): the “log(1/C)” value is 3.86.

`OC(CN1CCCCC1)c1cc(-c2ccccc2)nc2c(Cl)cc(Cl)cc12` (configuration not stated): the “log(1/C)” value is given as 3.17.

Take `CCCCNC(C)(C)CC(O)c1cc(C(F)(F)F)nc2c(C(F)(F)F)cccc12` (configuration not stated): the “log(1/C)” value came to 3.27.

`CCCCCCCN(CCCCCCC)CC(O)c1cc2ccccc2c2c(Cl)cccc12` (configuration not stated): the “log(1/C)” value is 3.09.

For the compound `CCCCN(CCCC)CC(O)c1cc(-c2ccc(C(F)(F)F)cc2)nc(-c2ccc(C(F)(F)F)cc2)c1` (configuration not stated), the “log(1/C)” value came to 4.09.

For the compound `CCCCN(CCCC)CC(O)c1cc(-c2ccc(Cl)cc2)nc2c(OC)ccc(OC)c12` (configuration not stated), the “log(1/C)” value is 2.52.

As for `CCCCCCCN(CCCCCCC)CC(O)c1cc2ccc(C(F)(F)F)cc2c2ccccc12` (configuration not stated), the “log(1/C)” value amounted to 3.12.

Take `CN1CCCC1CC(O)c1cc2ccc(Cl)cc2c2cc(Cl)ccc12` (configuration not stated): the “log(1/C)” value is 3.46.

In the case of `CCCCNCC(O)c1cc(-c2ccc(Cl)cc2)cc2cc(Cl)ccc12` (configuration not stated), the “log(1/C)” value stood at 3.29.

Take `CCCCN(CCCC)CCC(O)c1cc2ccccc2c2ccccc12` (configuration not stated): the “log(1/C)” value was determined as 2.45.

With `CCCCN(CCCC)CC(O)c1c2cccc(Cl)c2cc2c(Cl)cccc12` (configuration not stated), the “log(1/C)” value amounted to 2.76.

For the compound `CCCCCN(CCCCC)CC(O)c1cc(-c2ccc(C(F)(F)F)cc2)nc(-c2ccc(C(F)(F)F)cc2)c1` (configuration not stated), the “log(1/C)” value is 3.97.

As for `CCCCCN(CCCCC)CC(O)c1cc(-c2ccc(Cl)cc2)nc(-c2ccc(Cl)cc2)c1` (configuration not stated), the “log(1/C)” value came out at 3.13.

As to `CCN(CC)CC(O)c1ccnc2cc(Cl)ccc12` (configuration not stated), the “log(1/C)” value is 3.03.

For the compound `OC(CC1CCCCN1)c1cc2ccc(Cl)cc2c2cc(C(F)(F)F)ccc12` (configuration not stated), the “log(1/C)” value turned out to be 4.09.

With `CCCCN(CCCC)CC(O)c1c(Br)c2cc(Br)ccc2c2ccc(Br)cc12` (configuration not stated), the “log(1/C)” value was 3.09.

As to `CCCCN(CCCC)CC(O)c1cc(-c2ccc(Cl)cc2)nc2cc(Cl)ccc12` (configuration not stated), the “log(1/C)” value worked out at 3.91.

As to `Cc1ccc2cc(C(O)CC3CCCCN3)c3ccc(C(F)(F)F)cc3c2c1` (configuration not stated), the “log(1/C)” value is listed as 3.16.

Take `Cc1cc(C)c2nc(-c3ccc(F)cc3)cc(C(O)CC3CCCCN3)c2c1` (configuration not stated): the “log(1/C)” value was found to be 3.61.

Turning to `CCCCN(CCCC)CC(O)c1cc2cc(Cl)cc(Cl)c2c2cc(Cl)ccc12` (configuration not stated), the “log(1/C)” value is given as 4.21.

With `COc1ccc2nc(C(F)(F)F)cc(C(O)CC3CCCCN3)c2c1` (configuration not stated), the “log(1/C)” value stood at 2.97.

As for `OC(CC1CCCCN1)c1cc2cc(C(F)(F)F)cc(C(F)(F)F)c2c2ccc(Cl)cc12` (configuration not stated), the “log(1/C)” value is 4.82.

In the case of `OC(CNC1CC1)c1cc(-c2ccc(Cl)c(Cl)c2)nc2c(Cl)cc(Cl)cc12` (configuration not stated), the “log(1/C)” value is 3.6.

Turning to `OC(CC1CCCCN1)c1cc2c(Cl)cc(Cl)cc2c2ccccc12` (configuration not stated), the “log(1/C)” value is recorded as 3.73.

Take `CCCCN(CCCC)CC(O)c1cc(C(=O)c2ccccc2)nc2c(Cl)cc(Cl)cc12` (configuration not stated): the “log(1/C)” value came to 3.03.

In the case of `OC(CC1CCCCN1)c1cc2cc3c(cc2c2cc(Cl)ccc12)OCO3` (configuration not stated), the “log(1/C)” value is listed as 3.14.

Consider `CCCCNCC(O)c1cc(/C=C/c2ccc(C(F)(F)F)cc2)nc(-c2ccc(C(F)(F)F)cc2)c1` (configuration not stated), for which the “log(1/C)” value is on record as 3.89.

For `CCCCN(CCCC)CC(O)c1cc(C(C)(C)C)nc2ccc(C)cc12` (configuration not stated), the “log(1/C)” value is recorded as 2.53.

As for `Cc1cc(C)cc(-c2cc(C(O)CC3CCCCN3)c3ccccc3n2)c1` (configuration not stated), the “log(1/C)” value was 2.24.

For `CCCCN(CCCC)CC(O)c1cccc2ccc3cccc(Cl)c3c12` (configuration not stated), the “log(1/C)” value is 2.3.

Regarding `CCCCN(CCCC)CC(O)c1cc(-c2cccs2)nc2cccc(Br)c12` (configuration not stated), the “log(1/C)” value was found to be 3.06.

For `CCCCN(CCCC)CC(O)c1cc2c(Cl)cccc2c2ccccc12` (configuration not stated), the “log(1/C)” value amounted to 2.65.

With `OC(CC1CCCCN1)c1cc2c(Br)cc(Br)cc2c2cc(C(F)(F)F)ccc12` (configuration not stated), the “log(1/C)” value is recorded as 4.2.

Consider `OC(CNC12CC3CC(CC(C3)C1)C2)c1cc(-c2ccccc2)nc2c(Cl)cc(Cl)cc12` (configuration not stated), for which the “log(1/C)” value came out at 2.36.

For the compound `CCCCN(CCCC)CC(O)c1cc(Cl)c2nc(-c3ccccc3)ccc2c1` (configuration not stated), the “log(1/C)” value was found to be 2.51.

Consider `OC(CC1CCCCN1)c1cc(-c2ccc(C(F)(F)F)cc2)nc(C(F)(F)F)c1` (configuration not stated), for which the “log(1/C)” value is 4.32.

`CCCCN(C)CC(O)c1cc(-c2ccc(Cl)cc2)nc(-c2ccc(Cl)cc2)c1` (configuration not stated): the “log(1/C)” value came out at 3.59.

Turning to `OC(CC1CCCCN1)c1cc2c(Cl)cc(Cl)cc2c2cc(Cl)ccc12` (configuration not stated), the “log(1/C)” value is listed as 4.12.

As for `CCCCCCCN(CCCCCCC)CC(O)c1c(Br)c2ccccc2c2ccccc12` (configuration not stated), the “log(1/C)” value is on record as 3.33.

Turning to `CCCCN(CCCC)CC(O)c1cc(-c2ccccc2)nc(-c2ccc(Cl)cc2)c1` (configuration not stated), the “log(1/C)” value turned out to be 2.91.

On to `CN1CCN(CC(O)c2cc(-c3ccc(F)cc3)nc3cc(F)ccc23)CC1` (configuration not stated), for which the “log(1/C)” value was 2.27.

Take `COc1cc2c(C(O)CC3CCCCN3)cc(-c3ccc(Cl)cc3)cc2cc1Cl` (configuration not stated): the “log(1/C)” value is recorded as 3.

With `CCCCN(CCCC)CC(O)c1cc(-c2ccc(Cl)cc2)nc(-c2ccc(C(F)(F)F)cc2)c1` (configuration not stated), the “log(1/C)” value was found to be 3.43.

In the case of `CCN(CC)C(CO)CC(O)c1cc(-c2cccs2)nc2ccc(Cl)cc12` (configuration not stated), the “log(1/C)” value turned out to be 2.12.

For `CCCCN(CCCC)CC(O)c1cc2ccc(Cl)cc2c2cc(C(F)(F)F)ccc12` (configuration not stated), the “log(1/C)” value was determined as 3.65.

Consider `CCCCCCCN(CCCCCCC)CC(O)c1cccc2c1ccc1cc(Cl)c(Cl)cc12` (configuration not stated), for which the “log(1/C)” value came to 2.55.
